Patent US20230131402A1, “SPIRO-LACTAM NMDA RECEPTOR MODULATORS AND USES THEREOF” (Aptinyx Inc., priority 2016, published 2023)

Key:
[1] = target: T1, NMDAR2B (Homo sapiens, UniProt Q13224); assay: [3H]MK-801 binding, NMDAR2B expressing HEK cell membranes; assay type: biochemical; conditions: 50 μM glutamate; for Emax: read-out: NMDAR2B A: % maximal [3H]MK-801 binding relative to 1 mM glycine; for EC50: read-out: NMDAR2B B: log EC50 (converted)
T1 construct: expressed in transfected cells; host or cells: HEK cells (membrane extract)
T1 sequence (Q13224 27-1484, species assumed, other chains not shown): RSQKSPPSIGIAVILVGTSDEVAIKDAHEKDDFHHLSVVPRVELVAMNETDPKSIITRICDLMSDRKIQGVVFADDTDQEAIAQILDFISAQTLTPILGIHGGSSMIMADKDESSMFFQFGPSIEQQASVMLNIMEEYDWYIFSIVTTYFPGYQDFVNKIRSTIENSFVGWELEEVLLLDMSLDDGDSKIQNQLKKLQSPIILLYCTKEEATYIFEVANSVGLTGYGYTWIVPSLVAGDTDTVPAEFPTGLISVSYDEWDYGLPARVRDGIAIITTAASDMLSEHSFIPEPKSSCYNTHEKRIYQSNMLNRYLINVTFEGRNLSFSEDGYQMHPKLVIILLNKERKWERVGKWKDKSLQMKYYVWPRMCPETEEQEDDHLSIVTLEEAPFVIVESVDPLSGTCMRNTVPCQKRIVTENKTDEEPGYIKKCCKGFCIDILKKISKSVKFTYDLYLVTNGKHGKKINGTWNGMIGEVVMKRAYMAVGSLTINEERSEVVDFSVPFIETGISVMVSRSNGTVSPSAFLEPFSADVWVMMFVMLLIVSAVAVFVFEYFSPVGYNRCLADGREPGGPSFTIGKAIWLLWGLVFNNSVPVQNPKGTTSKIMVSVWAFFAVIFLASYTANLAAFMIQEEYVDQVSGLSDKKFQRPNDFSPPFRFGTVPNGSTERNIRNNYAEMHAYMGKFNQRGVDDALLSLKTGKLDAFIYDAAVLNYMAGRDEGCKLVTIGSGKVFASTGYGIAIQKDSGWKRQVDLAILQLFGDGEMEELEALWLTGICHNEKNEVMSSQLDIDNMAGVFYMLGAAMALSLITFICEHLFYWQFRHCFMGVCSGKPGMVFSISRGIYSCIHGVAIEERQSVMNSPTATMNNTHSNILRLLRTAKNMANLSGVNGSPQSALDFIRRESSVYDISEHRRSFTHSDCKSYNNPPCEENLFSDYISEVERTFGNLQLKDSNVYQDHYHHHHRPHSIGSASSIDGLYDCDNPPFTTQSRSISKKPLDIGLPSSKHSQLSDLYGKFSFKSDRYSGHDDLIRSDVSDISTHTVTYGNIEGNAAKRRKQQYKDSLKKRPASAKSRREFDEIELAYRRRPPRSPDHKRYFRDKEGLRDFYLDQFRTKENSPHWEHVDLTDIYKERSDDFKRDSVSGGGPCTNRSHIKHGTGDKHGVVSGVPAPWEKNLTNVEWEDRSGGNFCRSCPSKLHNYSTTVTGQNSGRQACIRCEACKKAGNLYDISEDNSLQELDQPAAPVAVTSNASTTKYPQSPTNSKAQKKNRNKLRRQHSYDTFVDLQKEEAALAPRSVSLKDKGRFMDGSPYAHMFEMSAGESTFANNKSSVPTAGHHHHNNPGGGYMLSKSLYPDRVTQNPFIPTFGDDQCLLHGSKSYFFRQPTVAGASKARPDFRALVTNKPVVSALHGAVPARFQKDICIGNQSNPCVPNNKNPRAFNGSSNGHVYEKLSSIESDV
Experimental: (§1) Assays were conducted as described by Moskal et al., “GLYX-13: a monoclonal antibody-derived peptide that acts as an N-methyl-D-aspartate receptor modulator,” Neuropharmacology, 49, 1077-87, 2005. These studies were designed to determine if the test compounds act to facilitate NMDAR activation in NMDAR2A, NMDAR2B, NMDAR2C or NMDAR2D expressing HEK cell membranes as measured by increases in [^3H]MK-801 binding.
(§2) In the assay, 300 μg of NMDAR expressing HEK cell membrane extract protein was preincubated for 15 minutes at 25° C. in the presence of saturating concentrations of glutamate (50 μM) and varying concentrations of test compound (1×10^−15M−1×10^−7M), or 1 mM glycine. Following the addition of 0.3 μCi of [^3H]MK-801 (22.5 Ci/mmol), reactions were again incubated for 15 minutes at 25° C. (nonequilibrium conditions). Bound and free [^3H]MK-801 were separated via rapid filtration using a Brandel apparatus.
(§3) In analyzing the data, the DPM (disintegrations per minute) of [^3H]MK-801 remaining on the filter were measured for each concentration of test compound or for 1 mM glycine. The DPM values for each concentration of a ligand (N=2) were averaged. The baseline value was determined from the best fit curve of the DPM values modeled using the GraphPad program and the log(agonist) vs. response(three parameters) algorithm was then subtracted from all points in the dataset. The % maximal [^3H]MK-801 binding was then calculated relative to that of 1 mM glycine: all baseline subtracted DPM values were divided by the average value for 1 mM glycine. The EC50 and % maximal activity were then obtained from the best fit curve of the % maximal [^3H]MK-801 binding data modelled using the GraphPad program and the log(agonist) vs. response(three parameters) algorithm.
(§4) The tables below summarize the results for the wild type NMDAR agonists NMDAR2A, NMDAR2B, NMDAR2C, and NMDAR2D, and whether the compound is not an agonist (−), is an agonist (+), or is a strong agonist (++), where column A is based on the % maximal [^3H]MK-801 binding relative to 1 mM glycine (−=0; <100%=+; and >100%=++); and column B is based on log EC50 values (0=−; ≥1×10^−9M (e.g., −8)=+; and <1×10^−9M (e.g., −10)=++).

[2] = target: T2, NMDAR2A (Homo sapiens, UniProt Q12879); assay: [3H]MK-801 binding, NMDAR2A expressing HEK cell membranes; assay type: biochemical; conditions: 50 μM glutamate; for Emax: read-out: NMDAR2A A: % maximal [3H]MK-801 binding relative to 1 mM glycine; for EC50: read-out: NMDAR2A B: log EC50 (converted)
T2 construct: expressed in transfected cells; host or cells: HEK cells (membrane extract)
T2 sequence (Q12879 23-1464, species assumed, other chains not shown): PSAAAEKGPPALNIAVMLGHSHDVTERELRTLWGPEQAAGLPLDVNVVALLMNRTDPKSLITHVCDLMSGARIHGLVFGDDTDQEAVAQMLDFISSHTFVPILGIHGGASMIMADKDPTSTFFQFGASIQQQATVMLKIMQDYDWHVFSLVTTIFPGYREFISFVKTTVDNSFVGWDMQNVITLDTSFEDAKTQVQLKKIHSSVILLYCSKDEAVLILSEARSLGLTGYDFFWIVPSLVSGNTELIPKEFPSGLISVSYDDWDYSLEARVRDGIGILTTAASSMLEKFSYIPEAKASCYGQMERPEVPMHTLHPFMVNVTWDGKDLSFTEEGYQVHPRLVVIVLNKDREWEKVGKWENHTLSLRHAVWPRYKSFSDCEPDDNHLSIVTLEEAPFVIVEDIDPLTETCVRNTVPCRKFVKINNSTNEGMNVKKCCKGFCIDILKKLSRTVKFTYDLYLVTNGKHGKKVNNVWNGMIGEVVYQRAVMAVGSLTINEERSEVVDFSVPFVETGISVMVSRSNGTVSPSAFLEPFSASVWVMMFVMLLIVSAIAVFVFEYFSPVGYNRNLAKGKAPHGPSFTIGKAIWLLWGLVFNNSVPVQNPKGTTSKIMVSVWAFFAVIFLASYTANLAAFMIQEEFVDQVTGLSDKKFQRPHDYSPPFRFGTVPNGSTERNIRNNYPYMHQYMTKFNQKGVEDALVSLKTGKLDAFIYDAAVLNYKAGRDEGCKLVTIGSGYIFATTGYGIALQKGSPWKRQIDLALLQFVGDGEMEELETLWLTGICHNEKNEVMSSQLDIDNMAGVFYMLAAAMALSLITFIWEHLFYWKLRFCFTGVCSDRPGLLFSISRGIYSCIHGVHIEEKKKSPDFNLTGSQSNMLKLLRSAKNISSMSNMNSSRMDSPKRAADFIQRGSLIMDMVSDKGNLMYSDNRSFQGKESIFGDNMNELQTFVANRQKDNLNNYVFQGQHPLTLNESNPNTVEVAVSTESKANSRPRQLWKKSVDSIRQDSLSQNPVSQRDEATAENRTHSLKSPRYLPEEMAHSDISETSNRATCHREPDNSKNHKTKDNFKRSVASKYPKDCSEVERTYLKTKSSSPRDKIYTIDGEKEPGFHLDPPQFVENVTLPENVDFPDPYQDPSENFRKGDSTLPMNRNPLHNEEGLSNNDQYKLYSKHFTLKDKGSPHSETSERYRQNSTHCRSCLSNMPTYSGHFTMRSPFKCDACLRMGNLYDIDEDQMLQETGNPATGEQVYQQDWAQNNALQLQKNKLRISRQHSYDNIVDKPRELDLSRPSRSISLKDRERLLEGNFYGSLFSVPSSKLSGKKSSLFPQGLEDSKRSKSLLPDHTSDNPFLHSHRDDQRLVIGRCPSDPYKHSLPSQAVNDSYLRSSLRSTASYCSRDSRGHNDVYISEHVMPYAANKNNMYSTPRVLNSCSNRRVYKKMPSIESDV
Experimental: as §1, §2, §3, §4

[3] = IV pharmacokinetics; assay type: in vivo, Sprague Dawley rats; conditions: Sprague Dawley, rat, in vivo, iv, 2 mg/kg, normal saline (compounds marked * in 1% NMP and 99% normal saline); for C0: read-out: C0; for Vd: read-out: Vss
Text: The table below summarizes the results of the IV pharmacokinetics.

[4] = Oral pharmacokinetics (plasma, brain, CSF); conditions: rat, 10 mg/kg, per os; for bioavailability / AUC(0-t) / Cmax / Tmax: Sprague Dawley, plasma, po; for bioavailability: % F; for AUC(0-t): AUClast; for AUC(0-t) / Cmax / Tmax: normal saline (compounds marked * in 1% NMP and 99% normal saline)
Experimental: Plasma, brain, and CSF samples were analyzed at various time points over a 24 hour period.

[5] = test system: rats' response (reduced floating time); assay: Porsolt forced swim test; assay type: in vivo, Sprague Dawley rats; conditions: for % reduction in float time: relative to vehicle group
Experimental: A non-clinical in vivo pharmacology study (Porsolt assay) was performed to measure antidepressant-like effects. A negative control (0.5% sodium carboxymethyl cellulose in 0.9% sterile saline vehicle) and a positive control (fluoxetine) are shown for comparison against test compound. The study allowed for the evaluation of the effects of each compound on the Porsolt forced swim test as assessed by the rats' response (reduced floating time) during a 5-minute swimming test.
Male 2-3 month old Sprague Dawley rats were used (Harlan, Indianapolis, Ind.). Rats were housed in Lucite cages with aspen wood chip bedding, maintained on a 12:12 light:dark cycle (lights on at 5 AM), and given ad libitum access to Purina lab chow (USA) and tap water throughout the study.
The Porsolt forced swim test adapted for use in rats was performed as described by Burgdorf et al., (The long-lasting antidepressant effects of rapastinel (GLYX-13) are associated with a metaplasticity process in the medial prefrontal cortex and hippocampus. Neuroscience 308:202-211, 2015). Animals were placed in a 46 cm tall×20 cm in diameter clear glass tube filled to 30 cm with tap water (23±1° C.) for 15 min on the first day (habituation) and 5 min on the subsequent test day. Positive control fluoxetine was dosed 3 times (24 h, 5 h and 1 h) prior to testing. Animals were tested 1 h post-dosing with the test compounds or vehicle. Animals received a 15 min habituation session 1 day before the 5 min test. A subset of compounds tested at 1 h post-dosing were retested at 1 wk post-dosing in the same sets of animals. Water was changed after every other animal. Animals were videotaped, and floating time as defined as the minimal amount of effort required to keep the animals head above water was scored offline by a blinded experimenter with high inter-rater reliability (Pearson's r>0.9).
Each compound tested at dose level shown. Significance vs. vehicle group for each experiment is marked. […] A compound marked “No” was not statistically significant from vehicle. Data was averaged for test compound and vehicle groups (N approximately 8 per group) and the percent reduction in floating for group treated with test compound relative to group treated with vehicle is shown.

[6] = 1 wk post-dose, 0.1 mg/kg, 0.1 mg/kg
[7] = 1 wk post-dose, 0.1 mg/kg, Yes = p<=0.05 from vehicle
[8] = 1 h post-dose, 0.1 mg/kg, 0.1 mg/kg
[9] = 1 h post-dose, 0.1 mg/kg, Yes = p<=0.05 from vehicle

O=C1NCCC12CNCCN2 (centres unmarked) [ES-301]
Emax [1]: < 100%
EC50 [1]: < 1 nM
Emax [2]: 0%

CC(C)(C)OC(=O)N1CCNC2(C1)CN(CC(N)=O)C2=O (centres unmarked) [ER-141]
NMDAR2B A: % maximal [3H]MK-801 binding relative to 1 mM glycine [1]: + (<100%=+)
EC50 [1]: < 1 nM
AUC(0-t) [3]: 1670 ng·h/mL
clearance [3]: 19.9 mL/min/kg
half-life [3]: 33 min
C0 [3]: 4280 ng/mL
Vd [3]: 0.7 L/kg
NMDAR2A A: % maximal [3H]MK-801 binding relative to 1 mM glycine [2]: − (−=0)
bioavailability [4]: 31%
AUC(0-t) [4]: 2620 ng·h/mL
Cmax [4]: 962 ng/mL
Tmax [4]: 49.8 min
CSF Cmax [4]: 42 ng/mL

C[C@@H](O)[C@H](N)C(=O)N1CCNC2(CCNC2=O)C1 (some centres unmarked) [ES-336]
% reduction in float time [5, 6]: 86.5%
Significance vs. vehicle [5, 7]: Yes
% reduction in float time [5, 8]: 81.6%
Significance vs. vehicle [5, 9]: Yes
NMDAR2B A: % maximal [3H]MK-801 binding relative to 1 mM glycine [1]: + (<100%=+)
EC50 [1]: < 1 nM
AUC(0-t) [3]: 4770 ng·h/mL
clearance [3]: 6.84 mL/min/kg
half-life [3]: 820 min
C0 [3]: 13700 ng/mL
Vd [3]: 0.73 L/kg
NMDAR2A A: % maximal [3H]MK-801 binding relative to 1 mM glycine [2]: + (<100%=+)
EC50 [2]: < 1 nM
bioavailability [4]: 44%
AUC(0-t) [4]: 9820 ng·h/mL
Cmax [4]: 2690 ng/mL
Tmax [4]: 60 min
CSF Cmax [4]: 143 ng/mL
Brain Cmax ([4]; brain): 32 ng/mL

CC(C)(C)OC(=O)N1CCNC2(C1)CN(CC(N)=O)C2=O (centres unmarked) [ER-142]
NMDAR2B A: % maximal [3H]MK-801 binding relative to 1 mM glycine [1]: − (−=0)
NMDAR2A A: % maximal [3H]MK-801 binding relative to 1 mM glycine [2]: + (<100%=+)
EC50 [2]: < 1 nM

O=C1NCCC12CNCCN2 (centres unmarked) [ES-302]
NMDAR2B A: % maximal [3H]MK-801 binding relative to 1 mM glycine [1]: ++ (>100%=++)
EC50 [1]: < 1 nM
AUC(0-t) [3]: 1720 ng·h/mL
clearance [3]: 18.9 mL/min/kg
half-life [3]: 142 min
C0 [3]: 6090 ng/mL
Vd [3]: 1.33 L/kg
NMDAR2A A: % maximal [3H]MK-801 binding relative to 1 mM glycine [2]: − (−=0)
bioavailability [4]: 12%
AUC(0-t) [4]: 1040 ng·h/mL
Cmax [4]: 340 ng/mL
Tmax [4]: 49.8 min

O=C1NCC12CN(Cc1ccccc1)CCN2Cc1ccccc1 (single isomer, unassigned) [EA-2, 5,8-Dibenzyl-2,5,8-Triazaspiro[3.5]Nonan-1-One]
NMDAR2B A: % maximal [3H]MK-801 binding relative to 1 mM glycine [1]: − (−=0)
NMDAR2A A: % maximal [3H]MK-801 binding relative to 1 mM glycine [2]: − (−=0)

C[C@@H](O)[C@H](N)C(=O)N1CCNC2(CCNC2=O)C1 (some centres unmarked) [ES-335]
% reduction in float time [5, 6]: 72.9%
Significance vs. vehicle [5, 7]: Yes
% reduction in float time [5, 8]: 58.5%
Significance vs. vehicle [5, 9]: Yes
Emax [1]: < 100%
EC50 [1]: < 1 nM
Emax [2]: < 100%
EC50 [2]: < 1 nM

CNCCC(Oc1ccc(C(F)(F)F)cc1)c1ccccc1 (centres unmarked) [Fluoxetine, fluoxetine, reference compound]
Significance vs. vehicle ([5]; positive control, 20 mg/kg, dosed 3 times (24 h, 5 h and 1 h) prior to testing): Yes

CN1CCN(Cc2ccccc2)C2(CCNC2=O)C1 (centres unmarked) [ES-315]
% reduction in float time [5, 6]: 25.0%
Significance vs. vehicle [5, 7]: No
% reduction in float time [5, 8]: 44.1%
Significance vs. vehicle [5, 9]: Yes
Emax [1]: < 100%
EC50 [1]: < 1 nM
Emax [2]: < 100%
EC50 [2]: < 1 nM

CC(=O)N1CCN(Cc2ccccc2)C2(CCNC2=O)C1 (centres unmarked) [ES-320]
NMDAR2B A: % maximal [3H]MK-801 binding relative to 1 mM glycine [1]: − (−=0)
NMDAR2A A: % maximal [3H]MK-801 binding relative to 1 mM glycine [2]: − (−=0)

CC(C)C(=O)N1CCN(Cc2ccccc2)C2(CCNC2=O)C1 (centres unmarked) [ES-321]
NMDAR2B A: % maximal [3H]MK-801 binding relative to 1 mM glycine [1]: ++ (>100%=++)
EC50 [1]: < 1 nM
AUC(0-t) [3]: 577 ng·h/mL
clearance [3]: 58.6 mL/min/kg
half-life [3]: 10.2 min
C0 [3]: 2570 ng/mL
Vd [3]: 0.71 L/kg
NMDAR2A A: % maximal [3H]MK-801 binding relative to 1 mM glycine [2]: + (<100%=+)
EC50 [2]: > 1 nM
bioavailability [4]: 16%
AUC(0-t) [4]: 466 ng·h/mL
Cmax [4]: 795 ng/mL
Tmax [4]: 15 min

CC(C)(C)OC(=O)N1CCNC2(CCNC2=O)C1 (single isomer, unassigned) [EM, Tert-Butyl 1-Oxo-2,6,9-Triazaspiro[4.5]Decane-9-Carboxylate]
NMDAR2B A: % maximal [3H]MK-801 binding relative to 1 mM glycine [1]: ++ (>100%=++)
EC50 [1]: > 1 nM
NMDAR2A A: % maximal [3H]MK-801 binding relative to 1 mM glycine [2]: + (<100%=+)
EC50 [2]: < 1 nM

CC(C)(C)OC(=O)N1CCNC2(CCNC2=O)C1 (single isomer, unassigned) [EN, Tert-Butyl 1-Oxo-2,6,9-Triazaspiro[4.5]Decane-9-Carboxylate]
NMDAR2B A: % maximal [3H]MK-801 binding relative to 1 mM glycine [1]: − (−=0)
NMDAR2A A: % maximal [3H]MK-801 binding relative to 1 mM glycine [2]: − (−=0)

CC(C)C(=O)N1CCN(Cc2ccccc2)C2(CCNC2=O)C1 (centres unmarked) [ES-322]
NMDAR2B A: % maximal [3H]MK-801 binding relative to 1 mM glycine [1]: − (−=0)
NMDAR2A A: % maximal [3H]MK-801 binding relative to 1 mM glycine [2]: − (−=0)
